# Paper PMC6213970, “Identification of Enolase as the Target of 2-Aminothiazoles in Mycobacterium tuberculosis” (Frontiers in Microbiology, 2018)
# Biological target: T1, human α-enolase (Homo sapiens, UniProt P06733)
# T1 construct: gene ENO1; commercial enzyme (Sigma)
# Test: pyruvate kinase-luciferase coupled assay (luminescence)
# Format: biochemical
# Conditions: 100 μM compound; 2-PG 0.2 mM (figure legend) or 0.5 mM (methods); 1 mM ADP, 10 mM MgSO4, 50 mM HEPES pH 7.0, 37°C, 1% DMSO
# T1 sequence (P06733 2-434): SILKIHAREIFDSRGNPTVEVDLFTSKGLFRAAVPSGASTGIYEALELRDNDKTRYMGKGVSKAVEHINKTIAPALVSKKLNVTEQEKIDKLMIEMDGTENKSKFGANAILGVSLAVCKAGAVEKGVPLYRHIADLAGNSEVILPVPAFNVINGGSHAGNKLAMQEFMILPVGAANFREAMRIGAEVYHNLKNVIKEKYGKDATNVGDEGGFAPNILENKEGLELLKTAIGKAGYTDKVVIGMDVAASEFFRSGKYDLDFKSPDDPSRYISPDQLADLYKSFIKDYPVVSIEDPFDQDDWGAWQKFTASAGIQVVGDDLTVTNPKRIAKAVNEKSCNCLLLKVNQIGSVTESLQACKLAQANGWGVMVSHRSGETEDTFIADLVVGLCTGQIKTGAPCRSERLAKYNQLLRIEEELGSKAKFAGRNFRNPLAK
substance,measurement,value
IDR-0106963,% inhibition at 100 μM,> 90%
